According to patent publication US20030211152A1, “Controlled release formulation for treating COPD” (SmithKline Beecham Corporation, priority 1999, published 2003):
Like-named read-outs stand apart in the source and are kept apart here.

How the values were obtained:
[1] = Side effects with increasing oral dose and blood levels; format: in vivo; conditions: as blood levels increase with increased levels of dosing
Source text: While to date no one has been able to identify a compound which is completely without unwanted CNS side effects at all possible dosage levels, at least one compound has been identified that meets the criteria described above, namely cis-4-cyano-4-[3-(cyclopentyloxy)-4-methoxyphenyl]cyclohexane-1-carboxylic acid. […] This is particularly true with COPD. […] The controlled release formulations of this invention allow for administering in a single dosage form several times the quantity that can otherwise be administered of a PDE4 inhibitor and achieve both initial therapeutically effective blood levels and maintain these blood level for an extended period of time. PDE4 inhibitors, particularly PDE4-specific inhibitors are useful in treating other diseases especially in the areas of inflammation, (e.g., asthma, chronic obstructive pulmonary disease, inflammatory bowel disease, rheumatoid arthritis), affects related to tumor necrosis factor and to cognition impairment (e.g., multi-infarct dementia, cognitive dysfunction, or stroke). This invention is useful in treating these diseases as well. These formulations and the method descibed herein can be used for prophylactic treatment as well. Additional other therapeutic or prophylactic agents can be combined with a PDE4 inhibitor in these formulations as well.

PDE 4 = assay: IC50 ratio: competing with [3H]R-rolipram binding to high affinity form over inhibiting catalytic activity of low affinity form; format: biochemical; conditions: 1 nM [3H]R-rolipram binding; 1 uM [3H]-cAMP as substrate
Source text: This invention covers controlled release formulations which contain a PDE 4 inhibitor, particularly an inhibitor that is specific for PDE 4. A preferred group of inhibitors are those that have an IC50 ratio (high/low binding) of about 0.1 or greater as further described in co-pending U.S. application Ser. No. 08/456,274 and its published counter-part PCT application serial number published Jan. 5, 1995 as WO95/00139; this application is incorporated herein in full by reference as if fully set forth herein. A preferred standard for PDE 4-specific inhibitors which can be used in this invention is one where the compound has an IC50 ratio of about 0.1 or greater; said ratio being the ratio of the IC50 value for competing with the binding of 1 nM of [^3H]R-rolipram to a form of PDE 4 which binds rolipram with a high affinity over the IC50 value for inhibiting the PDE 4 catalytic activity of a form which binds rolipram with a low affinity using 1 uM[^3H]-cAMP as the substrate.

[2] = clinical studies / indications; cited from earlier work

With `COc1ccc([C@]2(C#N)CC[C@@H](C(=O)O)CC2)cc1OC1CCCC1` [cis-4-cyano-4-[3-(cyclopentyloxy)-4-methoxyphenyl]cyclohexane-1-carboxylic acid] the side effects [1] was “undesirable side effects such as those attributed to CNS activity begin to be manifested” and the “therapeutic ratio (IC50 ratio high/low binding)” value (PDE 4) was “greater than 0.1”.
In the case of `CCCCn1c(=O)c2c(ncn2CC(C)=O)n(CCCC)c1=O` [denbufylline], the side effects [2] is given as “pyrosis, nausea and emesis”.
In the case of `COc1ccc(C2CNC(=O)C2)cc1OC1CCCC1` (stereo not shown) [rolipram], the side effects [2] is listed as “psychotropic activity and produces gastrointestinal effects, e.g., pyrosis, nausea and emesis”.
